pEC50: −log10 of the molar value.
What was measured:
hKCNQ2/3 [1] = target: T1, hKCNQ2/3 (Homo sapiens, UniProt O43525+O43526); assay: Voltage-clamp (patch-clamp) measurements on stably transfected hKCNQ2/3 CHO-K1 cell line; format: cell-based; design: expressed in transfected cells; host or cells: CHO-K1 (stably transfected); conditions: 10 μM test substance at −40 mV, current increase normalised against retigabine (10 μM), read-out: Patch-clamp % Efficacy @ 10 μM (Retigabine = 100%)
Method: Voltage-Clamp Measurements
In order to confirm a KCNQ2/3 agonistic action of the substances electrophysiologically, patch-clamp measurements (Hamill O P, Marty A, Neher E, Sakmann B, Sigworth F J: Improved patch-clamp techniques for high-resolution current recording from cells and cell-free membrane patches, Pfluger's Arch. 1981 August; 391(2):85-100) were performed in voltage-clamp mode on a stably transfected hKCNQ2/3 CHO-K1 cell line. After formation of the gigaseal the cells were first clamped at a holding potential of −60 mV. Depolarising voltage jumps up to a potential of +20 mV were then applied (increment: 20 mV, duration: 1 second) in order to confirm the functional expression of KCNQ2/3-typical currents. The substances were tested at a potential of −40 mV. First of all the current increase induced by retigabine (10 μM) at −40 mV was recorded on each cell as a positive control. After completely washing out the retigabine effect (duration: 80 s) the test substance (10 μM) was applied. The current increase induced by the test substance was normalised against the retigabine effect and stated as the relative efficacy (see below).

hKCNQ2/3 [2] = target: T1, hKCNQ2/3; assay: Fluorescence assay using a voltage-sensitive dye (fluorimetry); format: cell-based; design: expressed in transfected cells; host or cells: CHO-K1; conditions: CHO-K1 cells expressing KCNQ2/3; for Emax at 1 µM / Emax at 10 µM: relative to retigabine = 100%; for Emax at 1 µM: read-out: Fluorimetry % Efficacy @ 1 μM (Retigabine = 100%); for Emax at 10 µM: read-out: Fluorimetry % Efficacy @ 10 μM (Retigabine = 100%)
Method: Pharmacological Experiments Fluorescence Assay Using a Voltage-Sensitive Dye
Human CHO-K1 cells expressing KCNQ2/3 channels are cultivated adherently at 37° C., 5% CO2 and 95% humidity in cell culture bottles (e.g. 80 cm^2 TC flasks, Nunc) with DMEM-high glucose (Sigma Aldrich, D7777) including 10% FCS (PAN Biotech, e.g. 3302-P270521) or alternatively MEM Alpha Medium (1×, liquid, Invitrogen, #22571), 10% foetal calf serum (FCS) (Invitrogen, #10270-106, heat-inactivated) and the necessary selection antibiotics.
Before being sown out for the measurements, the cells are washed with a 1×DPBS buffer without Ca^2+/Mg^2+ (e.g. Invitrogen, #14190-094) and detached from the bottom of the culture vessel by means of Accutase (PAA Laboratories, #L11-007) (incubation with Accutase for 15 min at 37° C.). The cell count then present is determined using a CASY™ cell counter (TCC model, Scharfe System) in order subsequently to apply 20,000 to 30,000 cells/well/100 μl of the described nutrient medium, depending on density optimisation for the individual cell line, to 96-well measuring plates of the Corning™ CeIIBIND™ type (flat clear-bottom black polystyrene microplates, #3340).
Incubation is then carried out for one hour at room temperature, without gassing or adjusting the humidity, followed by incubation for 24 hours at 37° C., 5% CO2 and 95% humidity.
The voltage-sensitive fluorescent dye from the Membrane Potential Assay Kit (Red™ bulk format part R8123 for FLIPR, MDS Analytical Technologies™) is prepared by dissolving the contents of a vessel of Membrane Potential Assay Kit Red Component A in 200 ml of extracellular buffer (ES buffer, 120 mM NaCl, 1 mM KCl, 10 mM HEPES, 2 mM CaCl2, 2 mM MgCl2, 10 mM glucose; pH 7.4). After removal of the nutrient medium, the cells are washed with 200 μl of ES buffer, then covered with a layer of 100 μl of the dye solution prepared above and incubated for 45 min at room temperature with exclusion of light.
The fluorescence measurements are carried out with a BMG Labtech FLUOstar™ BMG Labtech NOVOstar™ or BMG Labtech POLARstar™ instrument (525 nm excitation, 560 nm emission, bottom-read mode). After incubation of the dye, 50 μl of the substances to be tested in the desired concentrations, or 50 μl of ES buffer for control purposes, are introduced into separate cavities of the measuring plate and incubated for 30 min at room temperature whilst being shielded from light. The fluorescence intensity of the dye is then measured for 5 min and the fluorescence value F1 of each well is thus determined at a given, constant time. 15 μl of a […] KCl solution ([…]) are then added to each well. The change in fluorescence is subsequently measured until all relevant measured values have been obtained (mainly 5-30 min). At a given time after KCl application, a fluorescence value F2 is determined, in this case at the time of the fluorescence peak.
For calculation, the fluorescence intensity F2 is compared with the fluorescence intensity F1, and the agonistic activity of the target compound on the potassium channel is determined therefrom. F2 and F1 are calculated as follows: […]
In order to determine whether a substance has an agonistic activity,
[formula] for example, can be compared with
[formula] of control cells.
[formula] is determined by adding to the reaction batch only the buffer solution instead of the substance to be tested, determining the value F1K of the fluorescence intensity, adding the potassium ions as described above and measuring a value F2K of the fluorescence intensity. Then F2K and F1K are calculated as follows: […]
A substance has an agonistic activity on the potassium channel if
[formula] is greater than
Independently of the comparison of
[formula] it is also possible to conclude that a target compound has an agonistic activity if an increase in
[formula] is to be observed as the dosage of the target compound increases. […]

rat = assay: Formalin test in the rat; format: in vivo, Sprague Dawley rats; conditions: phase II (21-27 min after formalin administration)
Method: The formalin test (Dubuisson, D. and Dennis, S. G., 1977, Pain, 4, 161-174) is a model for acute and chronic pain. In the tests described here, the chronic pain component (phase II of the formalin test; time interval 21-27 min after formalin administration) was analysed.
A single formalin injection into the dorsal side of one rear paw was used to induce a biphase nociceptive response in experimental animals allowed to move freely, and the response was recorded by observation of three clearly distinguishable behaviour patterns.
Formalin is administered subcutaneously in a volume of 50 μl and a concentration of 5% into the dorsal side of the right rear paw of each animal. The vehicle and the substances to be tested are administered intravenously 5 minutes before or orally 30 minutes before the formalin injection.
The specific behavioural changes, such as lifting and shaking the paw, shifting of weight by the animal and biting and licking responses, are observed and recorded continuously for 60 minutes after formalin administration. The behavioural changes are weighted differently (score 0-3) and a pain rate (PR) calculated using the formula below: PR=[(T0×0)+(T1×1)+(T2×2)+(T3×3)/180.
Sprague Dawley rats (Janvier, Belgium) are used as the phylum. The weight of the animals is between 180 and 200 g. The group size was n=10.

T1 sequence (O43526 whole entry): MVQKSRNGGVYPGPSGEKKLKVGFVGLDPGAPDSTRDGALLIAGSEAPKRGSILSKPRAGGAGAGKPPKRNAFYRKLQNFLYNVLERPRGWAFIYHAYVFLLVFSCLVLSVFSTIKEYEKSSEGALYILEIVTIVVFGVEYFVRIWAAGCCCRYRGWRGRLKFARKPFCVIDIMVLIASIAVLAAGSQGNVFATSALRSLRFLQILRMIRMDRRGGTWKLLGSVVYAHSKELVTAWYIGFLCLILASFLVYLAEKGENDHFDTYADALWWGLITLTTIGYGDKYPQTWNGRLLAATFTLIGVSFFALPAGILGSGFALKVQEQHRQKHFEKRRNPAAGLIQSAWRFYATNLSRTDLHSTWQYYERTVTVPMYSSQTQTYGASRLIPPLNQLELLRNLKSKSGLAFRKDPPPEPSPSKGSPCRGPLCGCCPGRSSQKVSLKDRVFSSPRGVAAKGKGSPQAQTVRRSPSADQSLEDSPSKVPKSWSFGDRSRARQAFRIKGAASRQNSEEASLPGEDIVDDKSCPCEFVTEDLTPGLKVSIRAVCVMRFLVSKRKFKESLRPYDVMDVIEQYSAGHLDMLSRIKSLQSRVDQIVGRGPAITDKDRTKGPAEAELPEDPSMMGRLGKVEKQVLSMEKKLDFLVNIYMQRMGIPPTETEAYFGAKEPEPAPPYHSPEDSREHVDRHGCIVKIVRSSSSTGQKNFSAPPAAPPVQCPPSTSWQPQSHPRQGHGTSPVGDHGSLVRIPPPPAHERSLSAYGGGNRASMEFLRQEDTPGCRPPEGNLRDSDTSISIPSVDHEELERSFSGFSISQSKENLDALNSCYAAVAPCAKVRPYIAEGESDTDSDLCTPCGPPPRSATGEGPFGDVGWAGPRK
T1 sequence (O43525 whole entry): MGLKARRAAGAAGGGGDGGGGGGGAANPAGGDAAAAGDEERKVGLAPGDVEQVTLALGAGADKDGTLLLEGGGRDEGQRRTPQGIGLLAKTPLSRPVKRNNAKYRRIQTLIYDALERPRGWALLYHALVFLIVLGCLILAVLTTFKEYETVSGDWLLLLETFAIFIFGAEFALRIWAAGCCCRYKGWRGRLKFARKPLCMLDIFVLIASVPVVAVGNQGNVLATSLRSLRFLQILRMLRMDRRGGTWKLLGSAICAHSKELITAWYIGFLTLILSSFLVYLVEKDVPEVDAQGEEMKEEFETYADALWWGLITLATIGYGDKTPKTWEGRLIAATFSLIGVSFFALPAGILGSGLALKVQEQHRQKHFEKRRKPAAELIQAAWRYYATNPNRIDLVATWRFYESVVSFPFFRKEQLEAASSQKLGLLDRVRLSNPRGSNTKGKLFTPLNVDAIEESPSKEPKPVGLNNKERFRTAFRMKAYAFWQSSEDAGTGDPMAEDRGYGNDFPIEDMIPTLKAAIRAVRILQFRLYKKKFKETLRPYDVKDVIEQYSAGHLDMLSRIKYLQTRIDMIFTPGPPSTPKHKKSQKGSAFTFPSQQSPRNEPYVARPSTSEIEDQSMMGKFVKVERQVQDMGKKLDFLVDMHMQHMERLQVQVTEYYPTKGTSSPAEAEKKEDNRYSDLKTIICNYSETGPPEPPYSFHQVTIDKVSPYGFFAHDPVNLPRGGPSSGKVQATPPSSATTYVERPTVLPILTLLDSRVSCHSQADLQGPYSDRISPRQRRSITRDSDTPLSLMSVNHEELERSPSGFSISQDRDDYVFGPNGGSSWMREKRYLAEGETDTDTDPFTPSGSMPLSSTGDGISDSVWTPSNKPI

Row | SMILES | pEC50 (hKCNQ2/3 [2]) | Emax at 1 µM (hKCNQ2/3 [2]) | other results
1 | CC1c2ccccc2CCN1C(=O)CCC(=O)NCc1cccc(C(F)(F)F)c1 (stereo not drawn) [Example compound 2, 4-(1-Methyl-3,4-dihydro-1H-isoquinolin-2-yl)-4-oxo-N-[[3-(trifluoromethyl)phenyl]methyl]butyric acid amide] | 4.98 |  | Emax at 10 µM (hKCNQ2/3 [1]): 17%
2 | O=C(CCC(=O)N1CCc2ccccc2C1c1cccs1)NCc1cccc(C(F)(F)F)c1 (stereo not drawn) [Example compound 3, 4-Oxo-4-(1-thien-2-yl-3,4-dihydroisoquinolin-2(1H)-yl)-N-(3-(trifluoromethyl)benzyl)butyric acid amide] | 5.98 | 76% | Emax at 10 µM (hKCNQ2/3 [2]): 134%
3 | O=C(CCC(=O)N1CCc2ccccc2C1c1ccncc1)NCc1cccc(C(F)(F)F)c1 (stereo not drawn) [Example compound 4, 4-Oxo-4-[1-(4-pyridyl)-3,4-dihydro-1H-isoquinolin-2-yl]-N-[[3-(trifluoromethyl)phenyl]methyl]butyric acid amide] |  | 11% | Emax at 10 µM (hKCNQ2/3 [2]): 35%
4 | O=C(CCC(=O)N1CCc2ccc(F)cc2C1c1ccccc1)NCc1cccc(C(F)(F)F)c1 (stereo not drawn) [Example compound 5, 4-(7-Fluoro-1-phenyl-3,4-dihydroisoquinolin-2(1H)-yl)-4-oxo-N-(3-(trifluoromethyl)benzyl)butyric acid amide] | 7.08 | 69% | 
5 | O=C(CCC(=O)N1CCc2c(F)cccc2C1c1ccccc1)NCc1cccc(C(F)(F)F)c1 (stereo not drawn) [Example compound 6, 4-(5-Fluoro-1-phenyl-3,4-dihydro-1H-isoquinolin-2-yl)-4-oxo-N-[[3-(trifluoromethyl)phenyl]methyl]butyric acid amide] | 7.12 | 73% | 
6 | O=C(CCC(=O)N1CCc2ccccc2C1c1ccccc1)NCc1ccccc1C(F)(F)F (stereo not drawn) [Example compound 7, 4-Oxo-4-(1-phenyl-3,4-dihydro-1H-isoquinolin-2-yl)-N-[[2-(trifluoromethyl)phenyl]methyl]butyric acid amide] |  | 12% | 
7 | O=C(CCC(=O)N1CCc2ccccc2C1c1ccccc1)NCc1ccc(C(F)(F)F)cc1 (stereo not drawn) [Example compound 8, 4-Oxo-4-(1-phenyl-3,4-dihydro-1H-isoquinolin-2-yl)-N-[[4-(trifluoromethyl)phenyl]methyl]butyric acid amide] |  | 63% | 
8 | CC1CN(C(=O)CCC(=O)NCc2cccc(C(F)(F)F)c2)C(c2ccccc2)c2ccccc21 (stereo not drawn) [Example compound 9, 4-(4-Methyl-1-phenyl-3,4-dihydro-1H-isoquinolin-2-yl)-4-oxo-N-[[3-(trifluoromethyl)phenyl]methyl]butyric acid amide] | 6.94 | 51% | 
9 | CC1(C)CN(C(=O)CCC(=O)NCc2cccc(C(F)(F)F)c2)C(c2ccccc2)c2ccccc21 (stereo not drawn) [Example compound 10, 4-(4,4-Dimethyl-1-phenyl-1,3-dihydroisoquinolin-2-yl)-4-oxo-N-[[3-(trifluoromethyl)phenyl]methyl]butyric acid amide] | 6.87 | 45% | 
10 | COc1ccc2c(c1)C(c1ccccc1)N(C(=O)CCC(=O)NCc1cccc(C(F)(F)F)c1)CC2 (stereo not drawn) [Example compound 11, 4-(7-Methoxy-1-phenyl-3,4-dihydro-1H-isoquinolin-2-yl)-4-oxo-N-[[3-(trifluoromethyl)phenyl]methyl]butyric acid amide] |  | 30% | 
11 | COc1cccc2c1CCN(C(=O)CCC(=O)NCc1cccc(C(F)(F)F)c1)C2c1ccccc1 (stereo not drawn) [Example compound 12, 4-(5-Methoxy-1-phenyl-3,4-dihydro-1H-isoquinolin-2-yl)-4-oxo-N-[[3-(trifluoromethyl)phenyl]methyl]butyric acid amide] |  | -7% | 
12 | CC1Cc2ccccc2C(c2ccccc2)N1C(=O)CCC(=O)NCc1cccc(C(F)(F)F)c1 (stereo not drawn) [Example compound 13, 4-(3-Methyl-1-phenyl-3,4-dihydro-1H-isoquinolin-2-yl)-4-oxo-N-[[3-(trifluoromethyl)phenyl]methyl]butyric acid amide] |  | 29% | 
13 | Cc1ccccc1C1c2ccccc2CCN1C(=O)CCC(=O)NCc1cccc(C(F)(F)F)c1 (stereo not drawn) [Example compound 67, 4-Oxo-4-(1-(2-tolyl)-3,4-dihydro-1H-isoquinolin-2-yl)-N-[[3-(trifluoromethyl)-phenyl]methyl]butyric acid amide] | 6.67 | 112% | 
14 | Cc1ccccc1C1c2ccccc2CCN1C(=O)CCC(=O)NCc1ccc(C(F)(F)F)cc1 (stereo not drawn) [Example compound 68, 4-Oxo-4-(1-(2-tolyl)-3,4-dihydro-1H-isoquinolin-2-yl)-N-[[4-(trifluoromethyl)-phenyl]methyl]butyric acid amide] | 6.83 | 56% | 
15 | Cc1ccccc1C1c2ccccc2CCN1C(=O)CCC(=O)NCc1ccccc1C(F)(F)F (stereo not drawn) [Example compound 69, 4-Oxo-4-(1-(2-tolyl)-3,4-dihydro-1H-isoquinolin-2-yl)-N-[[2-(trifluoromethyl)-phenyl]methyl]butyric acid amide] | 6.80 | 67% | 
16 | O=C(CCC(=O)N1CCn2cccc2C1c1ccccc1)NCc1cccc(C(F)(F)F)c1 (stereo not drawn) [Example no. 2 in WO2008/046582, reference compound] |  |  | Formalin test rat i.v. @ 4.64 mg/kg % Reduction of nociceptive behaviour (rat): No effect
